*1 amine or outer side, *2 acyl side, *3 side chain or, on linkers, in order; H or OH if unused. Where a SMILES comes first, the peptide text is derived from it. Where no end group is shown, it is not given here. [ ]: non-standard residue; d: D form. hGln = L-homoglutamine, NC(=O)CCC[C@H](N[*:1])C(=O)[*:2]; pyridine‑bisazole = not defined here; Nle = CCCC[C@H](N)C(=O)O; Dha = C=C(N)C(=O)O
Tests used:
[1] = target: T1, Human TLR10 Fc Chimera protein (extracellular domain) (Homo sapiens, UniProt Q9BXR5); assay: Surface plasmon resonance binding to TLR10; details: SPR
T1 construct: Chimera protein (extracellular domain, amino acid 20-576;); Fc (chimera); purchased R&D system #6619-TR-050
T1 sequence (Q9BXR5 20-576): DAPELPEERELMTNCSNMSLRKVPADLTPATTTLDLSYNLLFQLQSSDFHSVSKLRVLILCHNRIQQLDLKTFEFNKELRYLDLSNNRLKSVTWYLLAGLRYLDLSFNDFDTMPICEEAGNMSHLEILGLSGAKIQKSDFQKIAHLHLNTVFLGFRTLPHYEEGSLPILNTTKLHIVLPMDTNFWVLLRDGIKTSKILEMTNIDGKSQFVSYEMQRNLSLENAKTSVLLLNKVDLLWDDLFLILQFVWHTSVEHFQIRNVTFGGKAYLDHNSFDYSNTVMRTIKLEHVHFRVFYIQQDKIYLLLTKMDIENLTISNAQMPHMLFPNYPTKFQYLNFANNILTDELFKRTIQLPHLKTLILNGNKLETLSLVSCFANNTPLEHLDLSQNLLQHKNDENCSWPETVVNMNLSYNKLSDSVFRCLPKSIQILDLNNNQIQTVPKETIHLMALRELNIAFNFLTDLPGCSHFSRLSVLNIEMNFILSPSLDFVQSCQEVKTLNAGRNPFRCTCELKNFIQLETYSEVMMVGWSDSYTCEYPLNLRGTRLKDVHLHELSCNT
Procedure: Reagents were purchased from Nacalai Tesque, Wako Pure Chemical Industries, Sigma-Aldrich Japan, or TCI Chemicals and were used as received. […]
Anti-HA magnetic beads were from Pierce Thermo […]
2000c spectrophotometer (Thermo Scientific) equipped with a 5 mm pathlength quartz cuvette using extinction coefficient values calculated with ExPASy ProtParam tool (https://web.expasy.org/protparam). […]
Biochemical measurements (sections 2.10 – 2.14) were performed in triplicate or more. Most […]
determination of biophysical parameters involved cell assay (CP50 and IC50), reported are standard errors of the fit; otherwise, error bars are standard deviations. […]

Serum stability assay = format: in vitro ADME; details: human serum, 37 °C, LC/MS; for half-life at 10 µM: pH 7.6, read-out: serum stability τ1/2 (converted)
Procedure: Next, we tested the metabolic stability of the discovered thiopeptides. The compounds were incubated in human serum at 37 °C in the presence of an internal control, and the amounts of the remaining analytes were quantified by LC/MS (Figures S27 and 28). […] At the other extreme, IR11 rapidly degraded in human serum with τ1/2 = 0.5 h. […]
Kinetic parameters and affinities of the […]
2.12. Thiopeptide metabolic stability experiments
The mixtures were stirred
well and transferred to a 37 °C thermostat. […]

TLR10 [2] = target: T2, TLR10 (Homo sapiens, UniProt Q9BXR5); assay: Single-round mRNA display binding assay (qPCR), TLR10; details: ratio of cDNA recoveries (qPCR), TLR10 pulldown over beads only, single-round selection
T2 sequence (Q9BXR5 20-576): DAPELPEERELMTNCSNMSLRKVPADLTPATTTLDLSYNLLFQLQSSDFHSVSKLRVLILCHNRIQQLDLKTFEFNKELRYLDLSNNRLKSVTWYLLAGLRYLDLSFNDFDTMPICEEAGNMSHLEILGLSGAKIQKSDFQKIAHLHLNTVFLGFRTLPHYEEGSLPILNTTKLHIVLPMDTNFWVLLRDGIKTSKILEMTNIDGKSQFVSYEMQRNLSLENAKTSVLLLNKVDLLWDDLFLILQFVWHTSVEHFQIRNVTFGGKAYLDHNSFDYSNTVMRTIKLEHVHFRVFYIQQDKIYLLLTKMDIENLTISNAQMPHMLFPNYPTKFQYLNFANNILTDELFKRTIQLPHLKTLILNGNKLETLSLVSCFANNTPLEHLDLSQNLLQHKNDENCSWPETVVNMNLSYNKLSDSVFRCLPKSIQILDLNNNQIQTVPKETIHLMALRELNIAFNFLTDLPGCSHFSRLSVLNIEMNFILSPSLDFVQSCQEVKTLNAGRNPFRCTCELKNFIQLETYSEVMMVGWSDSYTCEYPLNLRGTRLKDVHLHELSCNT

TLR10 [3] = target: T2, TLR10; assay: mRNA display affinity selection against TLR10, NGS abundance; format: binding; parameters: Chimera protein (extracellular domain, amino acid 20-576;); Fc (chimera); purchased R&D system #6619-TR-050; details: for rank in pulldown(–) / rank in pulldown(+): TLR10 selection, NGS abundance rank; for rank in pulldown(+): –: not found in the final pulldown(+) libraries at the sequenced depth
[4] = target: T3, toll-like receptor 10, extracellular domain (UniProt Q9BXR5 20-576); assay: SPR; surface plasmon resonance of synthetic thiopeptides on their target protein; conditions in S.I. 2.10 (not shown); details: both partners purified
T3 construct: toll-like receptor 10 (TLR10), extracellular domain; also called TLR10; TLR10 cell surface receptor
T3 sequence (looked up): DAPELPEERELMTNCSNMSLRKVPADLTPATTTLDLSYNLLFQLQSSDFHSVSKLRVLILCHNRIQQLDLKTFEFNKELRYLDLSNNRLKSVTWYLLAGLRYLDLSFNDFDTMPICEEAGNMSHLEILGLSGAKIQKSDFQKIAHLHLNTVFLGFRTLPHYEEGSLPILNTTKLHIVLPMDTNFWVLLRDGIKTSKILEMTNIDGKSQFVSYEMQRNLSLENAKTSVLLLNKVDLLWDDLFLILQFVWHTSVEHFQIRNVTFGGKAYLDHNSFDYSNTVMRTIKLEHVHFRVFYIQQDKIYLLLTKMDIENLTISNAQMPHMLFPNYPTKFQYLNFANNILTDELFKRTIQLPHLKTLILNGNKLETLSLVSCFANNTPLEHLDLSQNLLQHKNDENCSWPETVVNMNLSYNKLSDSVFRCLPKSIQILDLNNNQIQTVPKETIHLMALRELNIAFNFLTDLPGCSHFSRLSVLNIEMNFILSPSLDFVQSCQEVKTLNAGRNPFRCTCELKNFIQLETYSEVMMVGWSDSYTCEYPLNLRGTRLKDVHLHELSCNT

[5] = TLR10 selection pulldown (-), Top100 selection hits, NGS

Molecule	koff [1] [s⁻¹]	kon [1] [M⁻¹ s⁻¹]	half-life at 10 µM (Serum stability assay) [h]	display P/N ratio (TLR10 [2])	rank in pulldown(–) (TLR10 [3])	Kd [4] [nM]	further results
C=C1NC(=O)[C@H](CCCC(N)=O)NC(=O)[C@H](Cc2ccc(O)cc2)NC(=O)[C@H](CC(C)C)NC(=O)[C@H](CCCC)NC(=O)[C@H](CC(N)=O)NC(=O)[C@H]([C@@H](C)O)NC(=O)[C@H](CCC(N)=O)NC(=O)[C@H](CCCCN)NC(=O)[C@H]([C@@H](C)CC)NC(=O)[C@H](CC(C)C)NC(=O)[C@H](CC(C)C)NC(=O)[C@H](C)NC(=O)[C@H](Cc2c[nH]c3ccccc23)NC(=O)c2ccc(-c3nc(C(=O)OC)cs3)nc2-c2csc1n2 [TL17] (HELM PEPTIDE1{W.A.L.L.I.K.Q.T.N.[Nle].L.Y.[O=C([C@H](CCCC(=O)[*:3])N[*:1])[*:2]]}|PEPTIDE2{[am]}|CHEM1{[C=C(N[*:2])c1nc(-c2nc(-c3nc(C(=O)OC)cs3)ccc2C(=O)[*:1])cs1]}$PEPTIDE1,PEPTIDE2,13:R3-1:R1|PEPTIDE1,CHEM1,1:R1-1:R1|PEPTIDE1,CHEM1,13:R2-1:R2$$$V2.0; bridges inferred)	0.0067	18900	6 ± 0.1	737	9		rank in pulldown(+) (TLR10 [3]): 10
C=C1NC(=O)[C@H](Cc2c[nH]cn2)NC(=O)[C@H]([C@@H](C)CC)NC(=O)[C@H](C(C)C)NC(=O)[C@H](C(C)C)NC(=O)[C@H](CC(N)=O)NC(=O)[C@H](C(C)C)NC(=O)[C@H](CCCNC(=N)N)NC(=O)[C@H](CO)NC(=O)[C@H](CC(C)C)NC(=O)[C@H](CCC(=O)O)NC(=O)[C@H](CC(C)C)NC(=O)[C@H](CO)NC(=O)[C@H](Cc2c[nH]c3ccccc23)NC(=O)c2ccc(-c3nc(C(=O)OC)cs3)nc2-c2csc1n2 [TL20] (HELM PEPTIDE1{W.S.L.E.L.S.R.V.N.V.V.I.H}|CHEM1{[C=C(N[*:2])c1nc(-c2nc(-c3nc(C(=O)OC)cs3)ccc2C(=O)[*:1])cs1]}$PEPTIDE1,CHEM1,1:R1-1:R1|PEPTIDE1,CHEM1,13:R2-1:R2$$$V2.0; bridges inferred)	0.0078	25500	38.2 ± 6	286	52		serum stability τ1/2 (Serum stability assay): 38 h
C=C1NC(=O)[C@H]([C@@H](C)CC)NC(=O)[C@H](C)NC(=O)[C@H](CC(C)C)NC(=O)[C@H](CCCCN)NC(=O)[C@H](CO)NC(=O)[C@H](CCC(N)=O)NC(=O)[C@H](CC(C)C)NC(=O)[C@H](CCCNC(=N)N)NC(=O)[C@H](Cc2ccccc2)NC(=O)[C@H](CC(C)C)NC(=O)[C@H](CCCC)NC(=O)[C@H]([C@@H](C)O)NC(=O)[C@H](Cc2c[nH]c3ccccc23)NC(=O)c2ccc(-c3nc(C(=O)OC)cs3)nc2-c2csc1n2 [TL6] (HELM PEPTIDE1{W.T.[Nle].L.F.R.L.Q.S.K.L.A.I}|CHEM1{[C=C(N[*:2])c1nc(-c2nc(-c3nc(C(=O)OC)cs3)ccc2C(=O)[*:1])cs1]}$PEPTIDE1,CHEM1,1:R1-1:R1|PEPTIDE1,CHEM1,13:R2-1:R2$$$V2.0)	0.0048	7650	8.2 ± 1.2	268	12		
C=C1NC(=O)[C@H](CCCCN)NC(=O)[C@H]([C@@H](C)CC)NC(=O)[C@H](CCCC)NC(=O)[C@H](C(C)C)NC(=O)[C@H](CCCNC(=N)N)NC(=O)CNC(=O)[C@H]([C@@H](C)CC)NC(=O)[C@H](Cc2c[nH]c3ccccc23)NC(=O)c2ccc(-c3nc(C(=O)OC)cs3)nc2-c2csc(n2)C(=C)NC(=O)c2coc1n2 [TL19] (HELM PEPTIDE1{W.I.G.R.V.[Nle].I.K.[C=C(N[*:1])c1nc(C(=O)[*:2])co1]}|CHEM1{[C=C(N[*:2])c1nc(-c2nc(-c3nc(C(=O)OC)cs3)ccc2C(=O)[*:1])cs1]}$PEPTIDE1,CHEM1,1:R1-1:R1|PEPTIDE1,CHEM1,9:R2-1:R2$$$V2.0; bridges inferred)	0.0032	5540	7.4 ± 1.5	263	22		rank in pulldown(+) (TLR10 [3]): 16
C=C1NC(=O)[C@H](Cc2ccccc2)NC(=O)[C@H](C)NC(=O)[C@H](C(C)C)NC(=O)[C@H](CCCCN)NC(=O)[C@H](CCCNC(=N)N)NC(=O)[C@H](CCC(N)=O)NC(=O)[C@H](CC(C)C)NC(=O)[C@H](Cc2c[nH]c3ccccc23)NC(=O)[C@H](Cc2ccccc2)NC(=O)[C@H](CO)NC(=O)[C@H]([C@@H](C)CC)NC(=O)[C@H](CCCC(N)=O)NC(=O)[C@H](Cc2c[nH]c3ccccc23)NC(=O)c2ccc(-c3nc(C(=O)OC)cs3)nc2-c2csc1n2 [TL3] (HELM PEPTIDE1{W.[O=C([C@H](CCCC(=O)[*:3])N[*:1])[*:2]].I.S.F.W.L.Q.R.K.V.A.F}|PEPTIDE2{[am]}|CHEM1{[C=C(N[*:2])c1nc(-c2nc(-c3nc(C(=O)OC)cs3)ccc2C(=O)[*:1])cs1]}$PEPTIDE1,PEPTIDE2,2:R3-1:R1|PEPTIDE1,CHEM1,1:R1-1:R1|PEPTIDE1,CHEM1,13:R2-1:R2$$$V2.0; bridges inferred)	0.0056	6270	3.2 ± 0.2	186	2		fraction of the pulldown(−) population (TLR10 [3]; TLR10 pulldown(−) selection, NGS): 8.1%; Library fraction (TLR10 [3]; [5]): 0.095; Raw reads (TLR10 [3]; [5]): 11388
SWTIRFTNQNKIAFSCSC (bridge (positions not given here) via pyridine‑bisazole; reading uncertain; also: macrocycle closed through pyridine-bisazole moiety, oxazole to thiazole change) [thiopeptide TL4 (synthetic)]						680	
SWIGRV[Nle]IK[Dha]SSCSC (bridge (positions not given here) via pyridine‑bisazole; not fully specified (residue 11); reading uncertain; also: Ser11 is an oxazole, macrocycle closed through a pyridine-bisazole moiety) [thiopeptide TL19 (synthetic)]						570	
SWT[Nle]LFRLQSKLAISCSC (bridge (positions not given here) via pyridine‑bisazole; reading uncertain; also: macrocycle closed through a pyridine-bisazole moiety, oxazole to thiazole change) [thiopeptide TL6 (synthetic)]						630	
SW[hGln]ISFWLQRKVAFSCSC (bridge (positions not given here) via pyridine‑bisazole; reading uncertain; also: macrocycle closed through a pyridine-bisazole moiety, oxazole to thiazole change) [thiopeptide TL3 (synthetic)]						890	
SWALLIKQIN[Nle]LY[hGln]SCSC (bridge (positions not given here) via pyridine‑bisazole; reading uncertain; also: macrocycle closed through a pyridine-bisazole moiety, oxazole to thiazole change) [thiopeptide TL17 (synthetic)]						360	

Source: article PMC10683472, “Deep Learning-Driven Library Design for the De Novo Discovery of Bioactive Thiopeptides” (ACS Central Science, 2023)
